Tested on: phosphate uptake by rabbit intestinal Brush Border Membrane Vesicles (BBMV)
Assay: 33PO4 uptake in rabbit intestinal BBMV (HTS), phosphate transporter inhibition in vitro
Type: biochemical
Settings: Table 2, phosphate uptake, read-out: IC50
Description: The following example outlines the procedures required for in vitro measurement of the inhibition of phosphate uptake by rabbit intestinal Brush Border Membrane Vesicles (BBMV).
Rabbit Intestinal Brush Border Membrane Vesicles (BBMV) were isolated from mucosal scrapings of the upper small intestine (duodenum) of male New Zealand White rabbits. The scrapings were divided into 2 g aliquots in cryopreservation vials, frozen in liquid nitrogen, and stored at −80° C.
The following procedure was performed for each 2 g sample of BBMV mucosal scraping. Buffer volumes and container sizes were adjusted appropriately for the number of 2 g samples used. The entire preparation was performed on ice, unless otherwise stated.
Mucosal scrapings (2 g per tube) were thawed in a 37° C. water bath for 3 minutes and then placed on ice. The scrapings were suspended with a total of 7.5 ml of 300 MET, and transferred to a 250 mL Corning tube on ice. To the suspension was added 30 mL cold (4° C.) deionized water (dH20). The suspension was homogenized with a tissue homogenizer (Polytron) on high speed for 2 minutes. A stir bar and MgCl2 (81.3 mg) was added. The suspension was mixed well by inverting the closed tube. The suspension was stirred on ice, ensuring that a good vortex is achieved with the stir bar, for 40 minutes. The suspension was transferred to a chilled centrifuge tube and spun at 4000×g for 15 minutes. The supernatant was transferred to a new chilled centrifuge tube and spun at 32000×g for 30 minutes. The supernatant was discarded and the pellet was re-suspended with 34 mL cold 60 MET. The suspension was homogenized with a Dounce homogenizer with 8 strokes. The suspension was transferred to a fresh 250 mL Corning tube. A stir bar and 69.1 mg MgCl2 were added. The suspension was stirred well on ice for 10 minutes. The suspension was transferred to a chilled centrifuge tube and spun at 4000×g for 15 minutes. The supernatant was transferred to a new chilled centrifuge tube and spun at 32000×g for 30 minutes. The supernatant was discarded. At this stage, the preparation could be continued or this pellet (P4) could be frozen in liquid nitrogen and stored at −80° C. When needed, this pellet could be allowed to thaw at room temperature for 5 minutes. Continuing the preparation, the pellet was re-suspended with 34 mL cold 280 MH. The suspension was homogenized in a Dounce homogenize with 8 strokes. The suspension was transferred to a new chilled centrifuge tube and spun at 32000×g for 30 minutes. The supernatant was discarded. To the pellet was added 500 μL 280 MH and the pellet was re-suspended very carefully with a 1 mL tuberculin syringe with a 25-gauge needle with care not to create bubbles. Once the entire pellet was suspended, the suspension was transferred to a chilled 1.5 mL microfuge tube. The suspension was evenly dispersed by bringing the suspension up into the syringe through the 25-gauge needle, and back out again 8 times with care not to create bubbles. The total protein concentration was determined by performing a Bradford Protein Assay. Using that value, the BBMV were diluted with 280 MH to reach approximately 0.5-2.0 mg/mL. The solution was used as soon as possible for uptake studies.
The following experiment was performed using a Beckman Multimek 96-tip robotic pipettor. The following outlines the preparation required to screen one 96-well plate of compounds. However, multiple plates could be screened in one experiment.
To the “Uptake Buffers” was added ^33PO4 to reach 200,000 CPM/19 μL. The buffer solutions were stored at room temperature. The following control solutions were prepared and placed into appropriate wells of a polypropylene, 96-well V-bottom plate (“Hot Stock Plate”):
a. Maximum activity (MAX)−Na Uptake buffer+^33PO4 at 200,000 CPM/19 μL
b. Midline activity (MID)−MAX+100 μM KH2PO4, pH 7.4
c. Minimum activity (MIN)− K Uptake buffer+^33PO4 at 200,000 CPM/19 μL

First: NCCCCCCNC(=O)c1cc(Br)ccc1NS(=O)(=O)c1ccc(Cl)c([N+](=O)[O-])c1 [Compound 119]
Second: O=C(Nc1ccccc1F)c1cc(Br)ccc1NS(=O)(=O)c1ccc(Cl)c([N+](=O)[O-])c1 [Compound 124]
The IC50 of the first is lower: 1000 to 1500 µM for the first, over 1500 µM for the second.

O=C(Nc1ccc(Cl)cc1Cl)c1cc(Br)ccc1NS(=O)(=O)c1ccc(Cl)c([N+](=O)[O-])c1 [Compound 120] and Cc1c(Cl)cccc1NC(=O)c1cc(Br)ccc1NS(=O)(=O)c1ccc(Cl)c([N+](=O)[O-])c1 [Compound 122] cannot be ordered by IC50: over 1500 µM for the first, over 1500 µM for the second.

Cc1ccccc1NC(=O)c1cc(Br)ccc1NS(=O)(=O)c1ccc(Cl)c([N+](=O)[O-])c1 [Compound 121] and O=C(Nc1cccc(Cl)c1)c1cc(Br)ccc1NS(=O)(=O)c1ccc(Cl)c([N+](=O)[O-])c1 [Compound 123] cannot be ordered by IC50: over 1500 µM for the first, over 1500 µM for the second.

O=C(Nc1ccc(Cl)c(Cl)c1)c1cc(Br)ccc1NS(=O)(=O)c1cccc([N+](=O)[O-])c1 [Compound 125] was tested, and the IC50 was 101 to 500 µM.

Same assay, conditions: Table 3, 100 μM compound

Going from O=S(=O)(Nc1ccc(I)cc1F)c1ccc(OC(F)(F)F)cc1 [Compound 126] to Nc1cc(Br)ccc1NS(=O)(=O)c1ccc(OC(F)(F)F)cc1 [Compound 150], the “% Inhib. At 100 μM” value falls from 103% to 57%.

Going from O=S(=O)(Nc1cc(Cl)c(Cl)cc1Cl)c1cc(C(F)(F)F)cc(C(F)(F)F)c1 [Compound 127] to O=S(=O)(Nc1cc(C(F)(F)F)c(Cl)cc1Cl)c1cc(C(F)(F)F)cc(C(F)(F)F)c1 [Compound 146], the “% Inhib. At 100 μM” value falls from 101% to 62%.

First: CSc1ccc(NS(=O)(=O)c2ccc(OC(F)(F)F)cc2)cc1 [Compound 128]
Second: Cc1ccc(NS(=O)(=O)c2ccc(OC(F)(F)F)cc2)cc1 [Compound 142]
The “% Inhib. At 100 μM” value of the first is higher: 88% for the first, 67% for the second.

Compared with O=S(=O)(Nc1ccc(Oc2ccccc2)cc1)c1ccc(OC(F)(F)F)cc1 [Compound 129], O=[N+]([O-])c1ccc(NS(=O)(=O)c2ccc(OC(F)(F)F)cc2)cc1 [Compound 156] is lower in “% Inhib. At 100 μM” value: 84% for the first, 46% for the second.

Going from CN(C)c1ccc(NS(=O)(=O)c2cc(C(F)(F)F)cc(C(F)(F)F)c2)cc1 [Compound 130] to O=S(=O)(Nc1ccc(F)cc1F)c1cc(C(F)(F)F)cc(C(F)(F)F)c1 [Compound 162], the “% Inhib. At 100 μM” value falls from 81% to 29%.

First: O=S(=O)(Nc1ccc(C(F)(F)F)cc1)c1ccc(NS(=O)(=O)c2ccc(C(F)(F)F)cc2)cc1 [Compound 131]
Second: O=C1OCc2ccc(NS(=O)(=O)c3ccc(C(F)(F)F)cc3)cc21 [Compound 161]
The “% Inhib. At 100 μM” value of the first is higher: 80% for the first, 29% for the second.

First: O=S(=O)(Nc1cccc(Cl)c1)c1ccc(OC(F)(F)F)cc1 [Compound 132]
Second: O=S(=O)(Nc1ccccc1Br)c1ccc(OC(F)(F)F)cc1 [Compound 149]
The “% Inhib. At 100 μM” value of the first is higher: 79% for the first, 57% for the second.

First: O=S(=O)(NCc1ccccc1Cl)c1ccc(OC(F)(F)F)cc1 [Compound 133]
Second: O=S(=O)(NCc1ccc(F)cc1F)c1ccc(OC(F)(F)F)cc1 [Compound 153]
The “% Inhib. At 100 μM” value of the first is higher: 77% for the first, 53% for the second.

Compared with O=S(=O)(Nc1ccccc1-n1cccc1)c1ccc(OC(F)(F)F)cc1 [Compound 134], NC(=O)c1ccccc1NS(=O)(=O)c1ccc(OC(F)(F)F)cc1 [Compound 166] is lower in “% Inhib. At 100 μM” value: 76% for the first, 22% for the second.

First: O=S(=O)(c1ccccc1)n1ccc2ccccc21 [Compound 135]
Second: O=c1sc2ccccc2n1S(=O)(=O)c1ccccc1 [Compound 148]
The “% Inhib. At 100 μM” value of the first is higher: 76% for the first, 60% for the second.

Compared with Nc1cc(Br)ccc1N(c1ccc(OC(F)(F)F)cc1)S(=O)(=O)c1ccc(OC(F)(F)F)cc1 [Compound 136], O=[N+]([O-])c1cc(Br)ccc1N(c1ccc(OC(F)(F)F)cc1)S(=O)(=O)c1ccc(OC(F)(F)F)cc1 [Compound 160] is lower in “% Inhib. At 100 μM” value: 76% for the first, 34% for the second.

Compared with CCOC(=O)c1cc2cccc(NS(=O)(=O)c3ccc(OC(F)(F)F)cc3)c2[nH]1 [Compound 137], O=[N+]([O-])c1cc(Br)ccc1NS(=O)(=O)c1ccc(OC(F)(F)F)cc1 [Compound 147] is lower in “% Inhib. At 100 μM” value: 74% for the first, 61% for the second.

Going from CC(C)(C)c1ccc(NS(=O)(=O)c2ccc(OC(F)(F)F)cc2)cc1 [Compound 138] to Cc1ccc(CNS(=O)(=O)c2ccc(OC(F)(F)F)cc2)cc1 [Compound 163], the “% Inhib. At 100 μM” value falls from 71% to 26%.

Compared with O=S(=O)(c1ccc(Cl)cc1)N1CCCc2ccccc21 [Compound 139], O=S(=O)(c1ccc(Cl)cc1)N1CCc2ccccc21 [Compound 140] is lower in “% Inhib. At 100 μM” value: 70% for the first, 69% for the second.

First: Cc1ccc2c(c1)CCCN2S(=O)(=O)c1ccc(C(C)(C)C)cc1 [Compound 141]
Second: COc1ccc2c(c1)C(=O)CCN2S(=O)(=O)c1ccc(C)cc1 [Compound 165]
The “% Inhib. At 100 μM” value of the first is higher: 68% for the first, 25% for the second.

Going from O=S(=O)(c1ccccc1)n1nnc2ccccc21 [Compound 143] to O=S(=O)(Nc1ccccc1)c1ccccc1 [Compound 159], the “% Inhib. At 100 μM” value falls from 64% to 36%.

Compared with Cc1cc(C)c(S(=O)(=O)n2cc(/C=C/C(=O)O)c3ccccc32)c(C)c1 [Compound 144], Cc1ccc(S(=O)(=O)n2cc(/C=C/C(=O)O)c3ccccc32)cc1 [Compound 154] is lower in “% Inhib. At 100 μM” value: 64% for the first, 52% for the second.

First: O=S(=O)(Nc1c(F)cc(Br)cc1F)c1ccc(OC(F)(F)F)cc1 [Compound 151]
Second: O=S(=O)(Nc1ccccn1)c1ccc(OC(F)(F)F)cc1 [Compound 168]
The “% Inhib. At 100 μM” value of the first is higher: 54% for the first, 16% for the second.

Going from Cc1ccc(S(=O)(=O)N2CCC(=O)c3ccc(Cl)cc32)cc1 [Compound 152] to CC(=O)Nc1ccc(S(=O)(=O)N2CCCc3ccccc32)cc1 [Compound 158], the “% Inhib. At 100 μM” value falls from 54% to 37%.

Going from O=S(=O)(c1ccc2ccccc2c1)N1CCc2ccccc21 [Compound 155] to C[S+]([O-])c1ccc2c(c1)CCN2S(=O)(=O)c1cccc(C(F)(F)F)c1 (stereo not shown) [Compound 157], the “% Inhib. At 100 μM” value falls from 51% to 37%.

First: O=[N+]([O-])c1ccc(S(=O)(=O)n2cnc3ccccc32)cc1 [Compound 164]
Second: COc1cc([N+](=O)[O-])ccc1NC(=O)c1cc(Br)ccc1NS(=O)(=O)c1ccc(OC(F)(F)F)cc1 [Compound 170]
The “% Inhib. At 100 μM” value of the first is lower: 26% for the first, 103% for the second.

Going from CSc1ccc(N(c2ccc(OC(F)(F)F)cc2)S(=O)(=O)c2ccc(OC(F)(F)F)cc2)cc1 [Compound 167] to O=C(Nc1ccc(Br)cc1C(F)(F)F)c1cc(Br)ccc1NS(=O)(=O)c1ccc(OC(F)(F)F)cc1 [Compound 169], the “% Inhib. At 100 μM” value rises from 21% to 106%.

With O=C(Nc1ccc(I)cc1F)c1cc(Br)ccc1NS(=O)(=O)c1ccc(OC(F)(F)F)cc1 [Compound 171] the “% Inhib. At 100 μM” value was 100%.

From US20070021509A1, “Phosphate transport inhibitors” (priority 2001, published 2007)
